Experimental data as given in article PMC5863515, “Re-evaluation of Adrenocorticotropic Hormone and Melanocyte Stimulating Hormone Activation of GPR139 in Vitro” (Frontiers in Pharmacology, 2018).
pEC50: −log10 of the molar value. Like-named read-outs stand apart in the source and are kept apart here.

Columns and labels:
MC4R = molecular target: T1, MC4R (Homo sapiens, UniProt P32245); assay: Calcium mobilization, HEK-293 transiently expressing MC4R; type: cell-based; settings: for EC50: HEK-293 transient, read-out: Agonist potency (pEC50), MC4R (converted)
T1 construct: expressed in transfected cells; host or cells: HEK-293, pCIneo, transient (FuGene HD)
Method: (§1) Human MC3R (NM_019888), MC4R (NM_005912), and MC5R (NM_005913) were transiently expressed in HEK-293 cells with and without human GPR139 (KR081941) or the chimeric G-protein Gα16. All genes were cloned into pCIneo (Promega, Madison, WI, United States, #E1841). HEK-293 cells were cultured in DMEM/F12 (Gibco, Grand Island, NY, United States, #11039-021), 10% FBS (Hyclone, Logan, UT, United States, # SH300700.03), 50 units/ml penicillin and 50 μg/ml streptomycin (Mediatech, Manassas, VA, United States, #30-001-CI). Cells were seeded at 4 × 10^6 cells in 10 cm dishes and allowed to grow overnight at 37°C, 5% CO2. On the day of transfection, culture media was replaced with F12-K (Mediatech, Manassas, VA, United States, #10-025-CV), 10% FBS, 20 mM HEPES (Hyclone, Logan, UT, United States, #SH30237.01) and transfected with 15 μg DNA (10 μg MCR:5 μg pCIneo, 10 μg MCR:5 μg Gα16 or 7.5 μg MCR:7.5 μg GPR139) using FuGene HD (Promega, Madison, WI, United States, #E2311) according to manufacturer’s instructions. MC3R, MC4R, and MC5R were also transiently expressed in the following GPR139 stably expressing cell lines using the FuGENE HD method: HEK-293 GPR139 clone#33, CHO-TREx GPR139 clone#18, and SK-N-MC/CRE TREx GPR139 clone#35. Stable cell lines were established according to method previously described ([Liu et al., 2015]).
(§2) Intracellular calcium mobilization was measured with the BD calcium kit (BD Bioscience, San Jose, CA, United States). The recombinant cell lines expressing MC3R, MC4R, and MC5R with and without GPR139 or Gα16 were seeded in culture media at a density of 50,000 cells/well into 96-well black/clear-bottom poly-D-lysine treated tissue culture plates. Cells were incubated overnight at 37°C and 5% CO2. Next day, culture media was removed and cells were washed with HBSS prior to dye-loading for 1 h at 37°C and 5% CO2. Agonist stimulation and intracellular calcium measurements were done on the FLIPR Tetra (Molecular Devices, Sunnyvale, CA, United States). For receptor inhibition analysis, antagonists (1 μM HS-024 or 10 μM JNJ-3792165) were added off-line 15 min prior to agonist addition on the Tetra. For G-protein inhibitor experiments, cells were treated with 1 μM YM-254890 for 5 min prior to agonist additions on the Tetra. […] Responses in Figure 6 were normalized to its respective agonist response without antagonist. EC50s were calculated by fitting a three-parameter logistic curve using least-squares non-linear regression analysis as implemented in Graphpad Prism 7.0.

MC5R + GPR139 = MC5R + GPR139 (Homo sapiens, UniProt Q6DWJ6); assay: Calcium mobilization, HEK-293 transiently expressing MC5R + GPR139; type: cell-based
Method: as §1, §2

GPR139 + MC3R = molecular target: T2, GPR139 + MC3R (Homo sapiens, UniProt Q6DWJ6); assay: Calcium mobilization, stable GPR139-HEK-293 cell line transiently expressing MC3R; type: cell-based; settings: for EC50: read-out: Agonist potency (pEC50), stable GPR139-HEK-293 + MC3R (converted)
T2 construct: expressed in transfected cells; host or cells: HEK-293 GPR139 clone#33, MC3R transient (FuGENE HD)
T2 sequence (Q6DWJ6 1-353): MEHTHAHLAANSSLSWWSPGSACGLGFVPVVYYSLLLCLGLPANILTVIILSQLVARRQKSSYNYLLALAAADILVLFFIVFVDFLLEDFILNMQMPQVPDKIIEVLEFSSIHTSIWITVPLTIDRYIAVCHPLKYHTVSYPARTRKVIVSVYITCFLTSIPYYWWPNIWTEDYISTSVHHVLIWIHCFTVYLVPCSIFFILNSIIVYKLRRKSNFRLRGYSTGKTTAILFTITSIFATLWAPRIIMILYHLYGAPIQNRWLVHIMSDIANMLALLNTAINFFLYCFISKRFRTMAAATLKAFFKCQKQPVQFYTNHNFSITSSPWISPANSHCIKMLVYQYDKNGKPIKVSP
Method: as §1
(§3) Intracellular calcium mobilization was measured with the BD calcium kit (BD Bioscience, San Jose, CA, United States). The recombinant cell lines expressing MC3R, MC4R, and MC5R with and without GPR139 or Gα16 were seeded in culture media at a density of 50,000 cells/well into 96-well black/clear-bottom poly-D-lysine treated tissue culture plates. Cells were incubated overnight at 37°C and 5% CO2. Next day, culture media was removed and cells were washed with HBSS prior to dye-loading for 1 h at 37°C and 5% CO2. […] EC50s were calculated by fitting a three-parameter logistic curve using least-squares non-linear regression analysis as implemented in Graphpad Prism 7.0.

GPR139 + MC4R = GPR139 + MC4R (Homo sapiens, UniProt Q6DWJ6); assay: Calcium mobilization, stable GPR139-HEK-293 cell line transiently expressing MC4R; type: cell-based
Method: as §1, §3

GPR139 + MC5R = GPR139 + MC5R (Homo sapiens, UniProt Q6DWJ6); assay: Calcium mobilization, stable GPR139-HEK-293 cell line transiently expressing MC5R; type: cell-based
Method: as §1, §3

GPR139 [1] = molecular target: T3, GPR139 (Homo sapiens, UniProt Q6DWJ6); assay: cAMP assay; type: cell-based; settings: unpublished data
T3 sequence (Q6DWJ6 1-353): T2 sequence (Q6DWJ6 1-353)

GPR139 [2] = molecular target: T3, GPR139; assay: [35S]-GTPγS binding assay, membranes of CHO-TREx cells stably expressing GPR139; type: biochemical; set-up: expressed in transfected cells; host or cells: CHO-TREx GPR139 clone#18; settings: for Stimulation of [35S]-GTPγS incorporation after pertussis toxin treatment: 100 ng/ml pertussis toxin overnight; for Stimulation of [35S]-GTPγS incorporation after pertussis toxin treatment / Effect of YM-254890 on agonist [35S]-GTPγS response: data not shown; for Effect of YM-254890 on agonist [35S]-GTPγS response: 1 μM YM-254890 (Gq inhibitor); for EC50: CHO-TREx GPR139 membranes, mean ± SEM, read-out: pEC50, [35S]-GTPγS binding (converted)
Method: For G-protein inhibitor experiments, CHO-TRex cells stably expressing GPR139 were treated with 100 ng/ml pertussis toxin (Gi/o inhibitor) overnight prior to harvesting cells for membrane preparations. […] Reactions were terminated by rapid filtration through GF/C filterplates (Perkin-Elmer, Waltham, MA, United States) on a Cell Harvester (Perkin-Elmer, Waltham, MA, United States). Filterplates were washed three times with ice-cold wash buffer (50 mM Tris, 5 mM MgCl2) and Microscint-40 was added to each well. Bound radioactivity was measured on a Topcount scintillation counter (Perkin-Elmer, Waltham, MA, United States). […] EC50s were calculated by modeling the response associated with the logarithm of concentration as a three-parameter logistic curve with the Bottom plateau parameter fixed at 0. The fit was obtained using least-squares non-linear regression as implemented in GraphPad Prism 7.0.

GPR139 [3] = molecular target: T3, GPR139; assay: Calcium mobilization, CHO-TREx cells stably expressing human GPR139; type: cell-based; set-up: expressed in transfected cells; host or cells: CHO-TREx GPR139 clone#18; settings: for EC50: CHO-TREx stable GPR139, read-out: pEC50, calcium mobilization (converted)
GPR139 [4] = molecular target: T3, GPR139; assay: Calcium mobilization, SK-N-MC/CRE cells stably expressing human GPR139; type: cell-based; set-up: expressed in transfected cells; host or cells: CHO-TREx GPR139 clone#18; settings: for EC50: SK-N-MC/CRE stable GPR139, read-out: pEC50, calcium mobilization (converted)
Method: as §1, §2

MC4R + Gα16 = MC4R + Gα16 (Homo sapiens, UniProt P32245); assay: Calcium mobilization, HEK-293 transiently expressing MC4R + Gα16; type: cell-based; set-up: expressed in transfected cells; host or cells: HEK-293, pCIneo, transient (10 μg MCR:5 μg Gα16); settings: for EC50: HEK-293 transient, read-out: Agonist potency (pEC50), MC4R + Gα16 (converted)
Method: as §1, §3

Sequence of GPR139 + MC4R (P32245 whole entry partner, one chain of several): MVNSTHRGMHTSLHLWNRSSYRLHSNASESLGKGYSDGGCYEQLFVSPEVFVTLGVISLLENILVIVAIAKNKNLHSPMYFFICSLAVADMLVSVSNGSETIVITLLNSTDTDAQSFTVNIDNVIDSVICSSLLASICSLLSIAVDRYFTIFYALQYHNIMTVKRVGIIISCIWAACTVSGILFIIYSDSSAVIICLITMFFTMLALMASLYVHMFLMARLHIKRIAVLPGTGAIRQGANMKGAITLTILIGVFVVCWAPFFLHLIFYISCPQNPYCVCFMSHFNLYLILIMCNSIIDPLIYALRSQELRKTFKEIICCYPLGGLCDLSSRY
Sequence of MC5R + GPR139 (P33032 whole entry partner, one chain of several): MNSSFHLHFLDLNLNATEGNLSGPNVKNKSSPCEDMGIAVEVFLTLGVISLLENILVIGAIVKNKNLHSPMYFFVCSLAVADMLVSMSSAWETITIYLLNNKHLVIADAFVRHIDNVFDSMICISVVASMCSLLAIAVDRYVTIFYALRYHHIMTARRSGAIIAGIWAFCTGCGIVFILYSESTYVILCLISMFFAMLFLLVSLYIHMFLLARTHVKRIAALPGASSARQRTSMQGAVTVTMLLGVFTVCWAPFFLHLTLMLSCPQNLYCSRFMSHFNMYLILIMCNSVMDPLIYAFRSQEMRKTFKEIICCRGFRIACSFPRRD
Sequence of GPR139 + MC5R (P33032 whole entry partner, one chain of several): as above
Sequence of MC4R + Gα16 (P32245 whole entry): as the sequence (P32245 whole entry partner, one chain of several) above
T1 sequence (P32245 whole entry): as the sequence (P32245 whole entry partner, one chain of several) above

| Structure (SMILES) | EC50 (MC4R) | pEC50 (MC5R + GPR139) | Agonist potency (pEC50), MC5R + GPR139, No antagonist (MC5R + GPR139) | EC50 (GPR139 + MC3R) | pEC50 (GPR139 + MC4R) | pEC50 (GPR139 + MC5R) | Response in a cAMP assay (GPR139 [1]) | Stimulation of [35S]-GTPγS incorporation after pertussis toxin treatment (GPR139 [2]) | Effect of YM-254890 on agonist [35S]-GTPγS response (GPR139 [2]) | EC50 (GPR139 [2]) | EC50 (GPR139 [3]) | EC50 (GPR139 [4]) | EC50 (MC4R + Gα16) | pEC50 (MC4R) | pEC50 (GPR139 + MC3R) | pEC50 (GPR139 [3]) | pEC50 (GPR139 [4]) | pEC50 (MC4R + Gα16) | Agonist potency (pEC50), stable GPR139-HEK-293 + MC5R (GPR139 + MC5R) |
| --- | --- | --- | --- | --- | --- | --- | --- | --- | --- | --- | --- | --- | --- | --- | --- | --- | --- | --- | --- |
| N[C@@H](Cc1c[nH]c2ccccc12)C(=O)O [L-Trp, L-tryptophan] | > 3160 µM | 4.02 | 4.02 ± 0.07 | 126 µM | 3.86 | 3.79 | unable to detect a response | did not stimulate | had no effect | 427 µM | 123 µM | 398 µM | > 3160 µM |  |  |  |  |  |  |
| COc1cc(OC)cc(C(=O)NNC(=O)Nc2cccc3ccccc23)c1 [TC-O9311] |  | 7.43 | 7.43 ± 0.06 |  | 7.21 | 7.38 | unable to detect a response | did not stimulate | had no effect | 0.178 µM |  |  |  | < 5.00 | 7.30 | 7.40 | 7.31 | < 5.00 |  |
| C[C@H](NC(=O)CNC(=O)c1cccc(Cl)c1)c1ccccc1 [JNJ-63533054, 3-chloro-N-[2-oxo-2-[[(1S)-1-phenylethyl]amino]ethyl]benzamide] | > 10 µM | 7.68 | 7.68 ± 0.08 | 0.0204 µM | 7.76 |  | unable to detect a response | did not stimulate | had no effect | 0.0646 µM | 0.0132 µM | 0.0263 µM | > 10 µM |  |  |  |  |  | 7.80 ± 0.07 |
